For this test, the target named is T1, IRAK4 (Homo sapiens, UniProt Q9NWZ3).
T1 construct: endogenous in cells; host or cells: OCI-LY10
T1 sequence (Q9NWZ3 1-460): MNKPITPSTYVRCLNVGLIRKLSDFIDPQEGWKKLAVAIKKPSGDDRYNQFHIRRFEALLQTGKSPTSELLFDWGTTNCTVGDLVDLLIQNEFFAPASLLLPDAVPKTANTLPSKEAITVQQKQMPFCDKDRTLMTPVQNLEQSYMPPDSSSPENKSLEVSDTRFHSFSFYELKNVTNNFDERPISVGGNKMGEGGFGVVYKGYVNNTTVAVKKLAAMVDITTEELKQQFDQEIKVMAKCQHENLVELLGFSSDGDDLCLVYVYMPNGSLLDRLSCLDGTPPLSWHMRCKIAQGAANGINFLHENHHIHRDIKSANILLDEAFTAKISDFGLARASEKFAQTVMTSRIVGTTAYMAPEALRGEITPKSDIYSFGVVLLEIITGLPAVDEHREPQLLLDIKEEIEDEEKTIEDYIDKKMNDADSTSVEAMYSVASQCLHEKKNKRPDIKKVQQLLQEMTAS
The test is described as follows: IRAK4 MSD Degradation in OCI-LY10. Format: cell-based. The settings on record: OCI-LY10 cells, Meso Scale Discovery, incubated 4 to 24 hours. The method, boiled down: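 IRAK4 degradation was quantified by Meso Scale electrochemiluminescence (anti-IRAK4 capture and detection antibodies) in lysates of treated OCI-LY10 cells. Compounds were dosed at 8 concentrations (1:3 dilutions, top 1 to 10 μM) for 4 to 24 h; DC50 derived by three-parameter logistic fitting.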

Data on 4 compounds can be found in patent publication US12150995B2, “IRAK degraders and uses thereof” (Kymera Therapeutics, Inc., priority 2020, dated 2024).

A word on the DC50: it is the concentration at which degradation of the target reaches its halfway point. Read a high DC50 as a less potent degrader.

On to `Cc1cccc(C(=O)Nc2cc3sc([C@H]4CC[C@H](C(=O)N5CC6(CCN(CCNc7cccc8c7C(=O)N(C7CCC(=O)NC7=O)C8=O)CC6)C5)CC4)nc3cc2C(C)(C)O)n1` (stereo partly shown) [I-468], for which the half-maximal degradation concentration (DC50) was 0.01 to 0.05 µM.

`O=C1CCN(c2cncc3c(C4CCN(C[C@H]5CC[C@H](n6cc7cc(NC(=O)c8cccc(C(F)(F)F)n8)c(Cl)cc7n6)CC5)CC4)cccc23)C(=O)N1` [I-370]: the DC50 lay within 0.01 to 0.05 µM. With `COc1cc2nn([C@H]3CC[C@H](CN4CCC(c5c(F)ccc6c5n(C)c(=O)n6C5CCC(=O)NC5=O)CC4)CC3)cc2cc1NC(=O)c1cccc(C(F)(F)F)n1` (stereo partly shown) [I-101] the figure was less than 0.01 µM; with `Cc1cc2nn([C@H]3CC[C@H](CN4CCN(c5cccc6c5n(C)c(=O)n6C5CCC(=O)NC5=O)C[C@@H]4C)CC3)cc2cc1NC(=O)c1cccc(C(F)(F)F)n1` (stereo partly shown) [I-301], less than 0.01 µM.
